viability, T/C and IC50 data for 4 molecules are collected here from PubChem BioAssay AID2060505 (Molecular Pharmacology Branch, DTP, NCI, 2025).

For orientation: viability, T/C means the ratio of treated to control. As usually defined, the IC50 is the concentration that gives 50% inhibition.

Where “and” joins values, the source holds several entries; their conditions need not be identical. Equal values may be shown once.

The test system of this experiment is 633275-114-R-J1-PDC complex spheroids, viability. In words: Anticancer human tumor 633275-114-R-J1-PDC patient-derived endometrial adenocarcinoma cell line growth inhibition [GQUAD]. Conditions: for viability, T/C: stronger effect = lower value. The text has this: DNA G-quadruplex Stabilizer Agents in Combinations in Complex Spheroids
A high-throughput screen of multi-cell type tumor spheroids was designed to identify active combinations of DNA G-quadruplex stabilizer agents and targeted small molecules. Complex spheroids include a stromal component modeled by human endothelial cells (HUVEC) and fibroblasts modeled by human mesenchymal stem cells (MSCs). The concentration ranges selected for each drug and investigational agent were based upon clinically achievable concentrations if the clinical Cmax of the agent was known.
Compounds. The drugs and investigational agents: pidnarulex (CX-5461; NSC782164), APTO-253 (NSC789042), BRACO-19 (NSC847499), peposertib (NSC802822), ceralasertib (NSC780249), elimusertib (NSC800525), camonsertib (NSC841442), AZD-1390 (NSC803789), olaparib (NSC753686), talazoparib (NSC767125), ART-558 (NSC835418), sotorasib (NSC818433), MRTX-1133 (NSC836407), SN-38 (NSC673596), topotecan (NSC609699), etoposide (NSC141540), doxorubicin (NSC123127), gemcitabine (NSC613327), 5-fluorouracil (NSC19893), paclitaxel (NSC125973), vemurafenib (NSC761431), panobinostat (NSC761190), R-306465 (JNJ-16241199; NSC773264), adavosertib (NSC754352), TP-3654 (NSC805149), carboplatin (NSC241240), KSQ-4279 (NSC840948), and staurosporine (NSC755774) were obtained from the National Cancer Institute (NCI) Developmental Therapeutics Program Chemical Repository (34). The FDA-approved anticancer drug set is available from the NCI Developmental Therapeutics Program. […] The stock solutions were prepared in dimethyl sulfoxide (DMSO, Sigma-Aldrich, St. Louis, MO, cat. D2650) at 800-fold the tested concentration and stored at -70 degrees C prior to their use. All drugs and investigational agents were tested over a range starting from a high concentration at or near the clinical Cmax and decreasing in half-log increments. If the clinical Cmax for an agent had not been determined, the highest concentration tested was 10 microM.
2.3 Cell Culture. All cells were maintained in an incubator at 37 degrees C and 5% CO2 with 95% humidity. The PDC lines were cultured according to standard operating procedures established by the NCI PDMR. All PDCs were thawed and cultured in Matrigel-coated flasks prepared with a working solution of 1X Ham's F-12 nutrient mix, without supplementation (Invitrogen, cat. 11765054), 100 U/mL penicillin-streptomycin (Invitrogen, cat. 15140122), and 2.5% Matrigel (Corning Inc., cat. 354248) for the first three passages. The 857933-349-R-J2-PDC line was cultured in 6C/Colon 1B media, which includes advanced DMEM/F-12 (Thermo Fisher Scientific, cat. 12634028), 10 mM HEPES (Thermo Fisher Scientific, cat. 15630080), 1X GlutaMAX supplement (Thermo Fisher Scientific, cat. 35050061), 0.1 mg/mL primocin (InvivoGen, cat. ant-pm-2), 10% defined fetal bovine serum, heat inactivated (HyClone Laboratories Inc., cat. SH30070.03HI), 50% L-WRN conditioned media (ATCC, cat. CRL-3276), 1.25 mM N-Acetyl-L-cysteine (Sigma-Aldrich, cat. A9165), 10 mM nicotinamide (Sigma-Aldrich, cat. N0636), 1X B-27 supplement (Thermo Fisher Scientific, cat. 17504044), 1X N-2 supplement (Thermo Fisher Scientific, cat. 17502048), 10 microM Y-27632 dihydrochloride (Tocris Bioscience, cat. 1254), and 50 ng/mL human EGF recombinant protein (Thermo Fisher Scientific, cat. PHG0311). The 485176-168-R4-J1-PDC line was cultured in Panc media, which includes all 6C/Colon 1B media components plus 100 ng/mL human FGF-10 (Thermo Fisher Scientific, cat. 100-26), 500 nM SB-431542 (Selleckchem, cat. S1067), and gastrin (Tocris, cat. 3006).
[…]
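Further: spheroids exposed to the agents for seven days.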
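Wherever viability, T/C is given: percent of DMSO vehicle control viability which is 100%.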

For `C#Cc1c(F)ccc2cc(O)cc(-c3ncc4c(N5CC6CCC(C5)N6)nc(OCC56CCCN5CC(F)C6)nc4c3F)c12` (stereo not drawn), the viability, T/C by setting is: (compound 0.0316 µM) 113% and 109% and 110%; (compound 0.1 µM) 97.5% and 81% and 88.5%; (compound 0.316 µM) 89.9% and 97.2% and 102%; (compound 1 µM) 91.7% and 88.4% and 80.4%; (compound 3.16 µM) 89.1% and 69.1% and 78.6%; (compound 10 µM) 72.7% and 64.9% and 67.2%. Also, where the note is “curve of compound”, the half-inhibitory concentration (IC50) is above 10000 nM.

For `CCc1c2c(nc3ccc(O)cc13)-c1cc3c(c(=O)n1C2)COC(=O)[C@]3(O)CC` + Cc1cnc(CNC(=O)c2c(=O)c3ccc(N4CCCN(C)CC4)nc3n3c2sc2ccccc23)cn1, the half-maximal inhibitory concentration (IC50) was 1.6 nM (curve of first compound, second compound 0.0316 µM); below 0.999 nM (curve of first compound, second compound 0.1 µM); below 0.999 nM (curve of first compound, second compound 0.316 µM); below 0.999 nM (curve of first compound, second compound 1 µM); below 0.999 nM (curve of first compound, second compound 3.16 µM); below 0.999 nM (curve of first compound, second compound 10 µM). Further, the viability, T/C by setting is: (second compound 0.0316 µM, first compound 0.000999 µM) 57.4%; (second compound 0.0316 µM, first compound 0.00316 µM) 38.5%; (second compound 0.0316 µM, first compound 0.00999 µM) 32.5%; (second compound 0.0316 µM, first compound 0.0316 µM) 32.5%; (second compound 0.0316 µM, first compound 0.0999 µM) 26.6%; (second compound 0.0316 µM, first compound 0.316 µM) 24.4%. The viability, T/C was 46.3% (second compound 0.1 µM, first compound 0.000999 µM); 36.2% (second compound 0.1 µM, first compound 0.00316 µM); 35.4% (second compound 0.1 µM, first compound 0.00999 µM); 32.4% (second compound 0.1 µM, first compound 0.0316 µM); 27.2% (second compound 0.1 µM, first compound 0.0999 µM); 25.2% (second compound 0.1 µM, first compound 0.316 µM). In addition, the viability, T/C is 42.9% (second compound 0.316 µM, first compound 0.000999 µM); 37.9% (second compound 0.316 µM, first compound 0.00316 µM); 33.9% (second compound 0.316 µM, first compound 0.00999 µM); 31.2% (second compound 0.316 µM, first compound 0.0316 µM); 30% (second compound 0.316 µM, first compound 0.0999 µM); 26.8% (second compound 0.316 µM, first compound 0.316 µM). Further, the viability, T/C (second compound 1 µM, first compound 0.000999 µM) was 40.4%; the viability, T/C (second compound 1 µM, first compound 0.00316 µM) was 35.3%; the viability, T/C (second compound 1 µM, first compound 0.00999 µM) is 35.9%; the viability, T/C (second compound 1 µM, first compound 0.0316 µM) is 30.2%; the viability, T/C (second compound 1 µM, first compound 0.0999 µM) was 27.8%; the viability, T/C (second compound 1 µM, first compound 0.316 µM) was 18.7%. Besides, the viability, T/C (second compound 3.16 µM, first compound 0.000999 µM) is 34%; the viability, T/C (second compound 3.16 µM, first compound 0.00316 µM) was 31.9%; the viability, T/C (second compound 3.16 µM, first compound 0.00999 µM) was 28.3%; the viability, T/C (second compound 3.16 µM, first compound 0.0316 µM) was 27%; the viability, T/C (second compound 3.16 µM, first compound 0.0999 µM) is 24.9%; the viability, T/C (second compound 3.16 µM, first compound 0.316 µM) was 13.4%. Moreover, the viability, T/C is 30.3% (second compound 10 µM, first compound 0.000999 µM); 28% (second compound 10 µM, first compound 0.00316 µM); 26.4% (second compound 10 µM, first compound 0.00999 µM); 27.8% (second compound 10 µM, first compound 0.0316 µM); 21.1% (second compound 10 µM, first compound 0.0999 µM); 0.26% (second compound 10 µM, first compound 0.316 µM).

As to `O=C(c1cc(Cc2n[nH]c(=O)c3ccccc23)ccc1F)N1CCN(C(=O)C2CC2)CC1`, the viability, T/C is 101% and 96.1% and 100% (compound 0.0316 µM); 94.1% and 84.6% and 94% (compound 0.1 µM); 86.2% and 95.4% and 96.1% (compound 0.316 µM); 85.2% and 91.4% and 78.4% (compound 1 µM); 74.8% and 71.8% and 75.2% (compound 3.16 µM); 58.2% and 52.5% and 61.2% (compound 10 µM). Further, where the note is “curve of compound”, the IC50 was above 10000 nM.

`CC(C)n1c(=O)n(C)c2cnc3cc(F)c(-c4ccc(OCCCN5CCCCC5)nc4)cc3c21`: the viability, T/C by setting is: (compound 0.0316 µM) 111% and 107% and 105%; (compound 0.1 µM) 102% and 105% and 94.4%; (compound 0.316 µM) 112% and 103% and 93.6%; (compound 1 µM) 95.5% and 97.2% and 101%; (compound 3.16 µM) 96.8% and 95.2% and 92.5%; (compound 10 µM) 69.9% and 73.6% and 72.5%. In addition, the IC50 (curve of compound) is above 10000 nM.
